Test results from US20100035822A1, “PROLINE-RICH PEPTIDES, PHARMACEUTICAL COMPOSITION, USE OF ONE OR MORE PEPTIDES AND METHOD OF TREATMENT” (priority 2006, published 2010).

Legend:
C6 cells from rat glioma = experiment: NO production in C6 glia cells; type: cell-based
Protocol: All reagents for cellular biology experiments were purchased from Invitrogen. C6 cells from rat glioma were cultured in DMEM, supplemented with 10% fetal bovine serum, streptomycin sulphate (100 μg/ml), and penicillin G (100 U/ml). Cultures were kept at 37° C. in 5% CO2 atmosphere. 24 hours before peptides were added, cells were transferred to a 24 well plate (1.5×10^5 cells/ml/well), containing DMEM medium lacking serum. Peptides were added to the cultures to a final concentration of 1 μM, and incubated for 24 hours at 37° C. in 5% CO2 atmosphere. The medium was collected and stored at −80° C.
NO concentration was determined in 1 ml of culture medium, which was incubated with N-ethylmaleimide at a final concentration of 10 mM, for 24 hours. The supernatant of a centrifugation at 1.000 rpm was injected in the NOA equipment (Nitric Oxide Analyser-Sievers) for NO quantification.

[1] = biological target: T1, argininosuccinate synthase (AsS) (Mus musculus, UniProt P16460); experiment: Potentiation of argininosuccinate synthase activity (phosphate generated from ATP); type: biochemical
T1 construct: Cytosolic and membrane fractions of the renal extract (100 mg/ml total protein) were applied to separate columns; from tissue; host or cells: Balb-c mouse kidney, cytosolic and membrane fractions
T1 sequence (P16460 1-412): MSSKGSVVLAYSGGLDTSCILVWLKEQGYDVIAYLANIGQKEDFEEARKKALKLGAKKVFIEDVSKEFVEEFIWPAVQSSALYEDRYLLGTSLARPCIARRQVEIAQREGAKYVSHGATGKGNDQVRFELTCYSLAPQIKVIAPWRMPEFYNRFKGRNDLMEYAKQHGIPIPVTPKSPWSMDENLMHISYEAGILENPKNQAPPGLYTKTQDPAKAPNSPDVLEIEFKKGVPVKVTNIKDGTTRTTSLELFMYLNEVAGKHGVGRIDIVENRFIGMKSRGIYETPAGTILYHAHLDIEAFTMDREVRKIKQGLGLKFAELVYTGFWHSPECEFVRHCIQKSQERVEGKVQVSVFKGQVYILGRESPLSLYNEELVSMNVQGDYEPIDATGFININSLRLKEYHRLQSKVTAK
Protocol: Activation of the AsS enzyme of Example 3 by peptide SEQ ID NO 8 was quantified in vitro according to Hao et al. [Hao G., Xie L., Gross S. S. Argininosuccinate synthetase is reversibly inactivated by S-nitrosylation in vitro and in vivo. J. Biol. Chem., 279:36192-36200 (2004)]. This method is based on measuring the quantity of phosphate generated from ATP, when pyrophosphatase is added to the reaction medium. Since the activity of the pyrophosphatase relates directly to the enzymatic activity of the AsS, the quantity of generated pyrophosphate is a direct measurement of the AsS activity.
The AsS enzyme (1 μg) was added to the reaction mixture containing 20 mM Tris-HCl, pH 7.8, 2 mM ATP, 2 mM citrulline, 2 mM aspartate, 6 mM MgCl2, 20 mM KCl, and 0.2 units of pyrophosphatase in a final volume of 200 μL in 96 well microplates. Increasing quantities of the SEQ ID NO 8 peptide (0.5, 1 to 8 μM) were added, and samples were incubated at 37° C. for 60 minutes. The reaction was interrupted by the addition of 200 μL of ammonium molybdate buffer (10 mM ascorbic acid, 2.5 mM ammonium molybdate, 2% sulphuric acid). Resulting phosphate was determined in the samples by spectrophotometry (absorbance at 650 nm), using a standard curve obtained with inorganic phosphate.
The production rate of phosphate (enzymatic activity of the AsS) was activated up to approximately 2.5 fold upon addition of 2 μM peptide SEQ ID NO 8. […] Accessibility of endothelial and inducible nitric oxide synthase to the intracellular citrulline-arginine regeneration pathway. Biochem. Pharmacol. 69: 97-104, 2005].

SK-N-AS cells = experiment: NO (nitrite) production in SK-N-AS neuroblastoma cells; type: cell-based, human; conditions: 24 hours incubation
Protocol: Human neurobalsotma cells (SK-N-AS, ATCC no. CRL-2137) were kept in DMEM, supplemented with 10% FBS (fetal bovine serum) and 1% non-essential amino acids, at 5% CO2 atmosphere, at 37° C., and 95% relative humidity. Cells were treated with trypsin, and replicated when an adequate cell concentration had been reached. The medium was exchanged after 12 hours, and later, every third day.
The method of Feelisch et al. (Feelisch et al., Concomitant S-, N-, and heme-nitros(yl)ation in biological tissues and fluids: implications for the fate of NO in vivo. FASEB J 16: 1775-1785, 2000) was employed to analyze NO production in the endothelial and neuronal cells described above.
Cells were grown in Petri dishes to 80% confluence. Peptide SEQ ID NO 8 was added in the concentration range of 0-8 μM to HUVEC cells, and 0-100 μM to SK-N-AS cells, and incubation continued for 24 hours. Subsequently, 1 ml of medium was retrieved (extracellular medium), and replaced by 1 ml 10 mM N-ethylmaleimide. Cells were washed in PBS, and lyzed in RIPA buffer (50 mM Tris pH 7.5, 150 mM NaCl, 1% Nonidet p-40 (NP-40) and 0.5% Na-desoxycholate, 0.1% SDS, 1 mM DTPA, and 10 mM N-ethylmaleimide). Lysats were collected and incubated on ice for 20 minutes and centrifuged. Supernatants were kept at −80° C. […] The concentration of nitrite, derived from NO, was measured in the extracellular and the intracellular media.

In the case of <ENWPHPQIPP [SEQ ID NO 8], the “rank of efficiency in activating nitrite production” value (C6 cells from rat glioma) is reported as “the most efficient”, the “activation of the production rate of phosphate (enzymatic activity of the AsS)” value ([1]; 2 μM peptide, AsS 1-8 μg) is reported as “approximately 2.5 fold” and the “activation of AsS” value ([1]; maximum activation) is reported as 70-80%. The “increase of NO generation” value (SK-N-AS cells) was “approximately 100%”.
